pIC50: −log10 of the molar value.
Experiments:
TBK1 = TBK1 (Homo sapiens (Human), UniProt Q9UHD2); experiment: TR-FRET kinase assay, TBK1; details: read-out: TBK1-IC50; full length recombinant TBK1 2.5 nM, 2x Km ATP, 1 μM peptide, 240 min at 25° C.; geometric mean of minimum four determinations
Sequence of TBK1 (Q9UHD2 whole entry): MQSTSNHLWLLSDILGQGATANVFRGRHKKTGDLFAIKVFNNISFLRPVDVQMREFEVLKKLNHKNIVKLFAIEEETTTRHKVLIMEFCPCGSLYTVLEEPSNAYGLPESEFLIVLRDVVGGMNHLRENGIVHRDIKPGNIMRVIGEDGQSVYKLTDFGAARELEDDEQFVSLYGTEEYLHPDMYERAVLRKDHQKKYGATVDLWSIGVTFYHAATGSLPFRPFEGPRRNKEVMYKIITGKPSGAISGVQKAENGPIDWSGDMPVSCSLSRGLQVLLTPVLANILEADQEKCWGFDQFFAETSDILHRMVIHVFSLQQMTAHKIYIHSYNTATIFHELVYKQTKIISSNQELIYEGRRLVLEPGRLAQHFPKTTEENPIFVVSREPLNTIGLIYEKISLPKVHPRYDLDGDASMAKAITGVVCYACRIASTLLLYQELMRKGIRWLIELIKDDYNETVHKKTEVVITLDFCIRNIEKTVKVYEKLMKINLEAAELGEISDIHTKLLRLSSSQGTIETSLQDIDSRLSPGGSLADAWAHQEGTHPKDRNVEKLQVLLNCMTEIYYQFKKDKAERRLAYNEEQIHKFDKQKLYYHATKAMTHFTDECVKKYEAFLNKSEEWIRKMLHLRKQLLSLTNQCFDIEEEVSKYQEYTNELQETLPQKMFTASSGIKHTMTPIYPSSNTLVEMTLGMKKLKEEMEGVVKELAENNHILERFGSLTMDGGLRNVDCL
Procedure: Enzymatic activity of IKKε and TBK1 was measured using a homogeneous time resolved fluorescence resonance energy transfer (TR-FRET) assay that monitors enzyme dependent phosphorylation of a biotinylated serine/threonine peptide substrate. […] TBK1 and IKKs were expressed and purified as full length recombinant proteins. Detection reagents for the assay were purchased from Cisbio. […] After an assay reaction time of 240 minutes at 25° C., reactions were terminated with EDTA.
Amount of phosphorylated peptide was determined by the addition of 125 nM streptavidin XL665 and europium cryptate labeled anti-phospho monoclonal antibody and the resulting TR-FRET signal was recorded on an Envision plate reader (Ex: 340 nm; Em: 615/665 nm; 100 μs delay and 200 μs read window). […] All IC50 values represent geometric mean values of a minimum of four determinations.

IKKε = IKKε (Homo sapiens (Human), UniProt Q14164); experiment: TR-FRET kinase assay, IKKε; format: biochemical; details: full length recombinant IKKε 0.3 nM, 2x Km ATP, 1 μM peptide, 240 min at 25° C.; geometric mean of minimum four determinations
Sequence of IKKε (Q14164 whole entry): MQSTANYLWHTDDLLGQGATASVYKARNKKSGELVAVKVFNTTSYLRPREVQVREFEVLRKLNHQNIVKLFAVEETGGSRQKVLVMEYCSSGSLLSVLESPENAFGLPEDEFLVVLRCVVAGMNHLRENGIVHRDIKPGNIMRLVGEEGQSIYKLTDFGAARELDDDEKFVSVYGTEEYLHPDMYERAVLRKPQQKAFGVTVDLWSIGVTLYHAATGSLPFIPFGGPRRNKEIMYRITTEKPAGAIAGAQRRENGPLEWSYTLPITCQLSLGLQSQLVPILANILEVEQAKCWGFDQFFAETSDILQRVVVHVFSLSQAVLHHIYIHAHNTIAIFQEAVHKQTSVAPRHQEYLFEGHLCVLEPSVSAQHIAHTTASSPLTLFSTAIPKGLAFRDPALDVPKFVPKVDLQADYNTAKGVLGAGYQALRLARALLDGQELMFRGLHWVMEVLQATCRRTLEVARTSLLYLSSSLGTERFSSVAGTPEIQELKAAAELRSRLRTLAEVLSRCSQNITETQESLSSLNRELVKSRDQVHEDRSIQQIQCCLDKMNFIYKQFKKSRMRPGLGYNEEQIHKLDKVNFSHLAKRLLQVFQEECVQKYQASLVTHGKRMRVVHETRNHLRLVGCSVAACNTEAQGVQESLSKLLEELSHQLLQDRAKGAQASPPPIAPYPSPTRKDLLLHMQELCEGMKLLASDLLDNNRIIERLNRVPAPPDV
From the text: Biological Assay for TBK1 and IKKs:

| SMILES | pIC50 (TBK1) | pIC50 (IKKε) |
| --- | --- | --- |
| N#CCC(=O)N1CC[C@H](Oc2ccc(-c3ccnc4[nH]c(-c5ccc(N6CCOCC6)cc5)cc34)cc2C#N)C1 [Example 24, (S)-2-((1-(2-cyanoacetyl)pyrrolidin-3-yl)oxy)-5-(2-(4-morpholinophenyl)-1H-pyrrolo[2,3-b]pyridin-4-yl)benzonitrile] | 7.25 | 6.49 |
| COc1cc(-c2cc3c(-c4ccc(OC5CCN(C(=O)CO)CC5)c(C#N)c4)ncnc3[nH]2)ccc1N1CCOCC1 [Example 125, 2-((1-(2-hydroxyacetyl)piperidin-4-yl)oxy)-5-(6-(3-methoxy-4-morpholinophenyl)-7H-pyrrolo[2,3-d]pyrimidin-4-yl)benzonitrile] | 9.05 | 8.58 |
| COc1cc(-c2cc3c(-c4ccc(O[C@H]5CCNC[C@H]5F)c(C#N)c4)ncnc3[nH]2)ccc1N1CCN(C2COC2)CC1 [Example 144, 2-(((3R,4S)-3-fluoropiperidin-4-yl)oxy)-5-(6-(3-methoxy-4-(4-(oxetan-3-yl)piperazin-1-yl)phenyl)-7H-pyrrolo[2,3-d]pyrimidin-4-yl)benzonitrile] | 8.21 | 7.19 |
| N#Cc1cc(-c2ncnc3[nH]c(-c4ccc(N5CCOCC5)cc4)nc23)ccc1OCC1CC1 [Example 202, 2-(cyclopropylmethoxy)-5-(8-(4-morpholinophenyl)-9H-purin-6-yl)benzonitrile] | < 6.00 | < 6.00 |
| COC(C)(C)c1ccc(-c2cc3c(-c4cc(C#N)c(OC5CCOCC5)cn4)ccnc3[nH]2)cc1 [Example 169, 2-(2-(4-(2-Methoxypropan-2-yl)phenyl)-1H-pyrrolo[2,3-b]pyridin-4-yl)-5-((tetrahydro-2H-pyran-4-yl)oxy)isonicotinonitrile] | 8.32 | 7.88 |
| N#Cc1cc(-c2ccnc3[nH]c(C(=O)NC4CC4)cc23)ccc1OC1CCOCC1 [Example 59, 4-(3-cyano-4-((tetrahydro-2H-pyran-4-yl)oxy)phenyl)-N-cyclopropyl-1H-pyrrolo[2,3-b]pyridine-2-carboxamide] | 7.10 | 7.26 |
| N#Cc1cc(-c2ncnc3[nH]c(-c4ccc(N5CCOCC5)cc4)cc23)ccc1OCC1CC1 [Example 102, 2-(cyclopropylmethoxy)-5-(6-(4-morpholinophenyl)-7H-pyrrolo[2,3-d]pyrimidin-4-yl)benzonitrile] | < 6.00 | < 6.00 |
| N#Cc1cc(-c2ncnc3[nH]c(-c4ccc(C5CCN(CC(F)F)CC5)cc4)nc23)ccc1OC1CCNCC1 [Example 260, 5-(8-(4-(1-(2,2-difluoroethyl)piperidin-4-yl)phenyl)-9H-purin-6-yl)-2-(piperidin-4-yloxy)benzonitrile] | 7.58 | 7.07 |
| N#Cc1cc(-c2ccnc3[nH]c(-c4ccc(N5CCOCC5)cc4)cc23)ccc1OC1CCOCC1 [Example 48, 5-(2-(4-morpholinophenyl)-1H-pyrrolo[2,3-b]pyridin-4-yl)-2-((tetrahydro-2H-pyran-4-yl)oxy)benzonitrile] | 8.49 | 7.94 |
| N#Cc1cc(-c2ccnc3[nH]c(-c4ccc(N5CCOCC5)cc4)cc23)ccc1OC1CN(C(=O)CO)C1 [Example 154, 2-((1-(2-hydroxyacetyl)azetidin-3-yl)oxy)-5-(2-(4-morpholinophenyl)-1H-pyrrolo[2,3-b]pyridin-4-yl)benzonitrile] | 7.49 | 6.84 |
| N#Cc1cc(-c2ccnc3[nH]c(-c4ccc(N5CCOCC5)cc4)cc23)ccc1O[C@H]1CCNC1 [Example 22, (S)-5-(2-(4-morpholinophenyl)-1H-pyrrolo[2,3-b]pyridin-4-yl)-2-(pyrrolidin-3-yloxy)benzonitrile] | 7.40 | 6.88 |
| N#Cc1cc(-c2ccnc3[nH]c(-c4ccc(N5CCOCC5)cc4)nc23)ccc1O[C@@H]1CCN(C(=O)CO)C1 [Example 196, (R)-2-((1-(2-hydroxyacetyl)pyrrolidin-3-yl)oxy)-5-(2-(4-morpholinophenyl)-3H-imidazo[4,5-b]pyridin-7-yl)benzonitrile] | 8.35 | 7.89 |
